# In patent US20240368154A1 (GENOSCO Inc., priority 2023, published 2024):
# Counter-ions that a name gives are not always drawn.
# Legend:
# [1] = target: T1, Recombinant ROCK2 (amino acids 5-554) (Homo sapiens, UniProt O75116); assay: ROCK inhibition assay, LANCE Ultra TR-FRET kinase assay; assay type: biochemical; details: at Km of ATP (table title), method: 1 mM ATP, 50 nM ULight-CREBtide substrate, 1 hour, room temperature
# T1 construct: ROCK2 (amino acids 5-554)
# [2] = target: T2, Recombinant ROCK1 (amino acids 1-477) (Homo sapiens, UniProt Q13464); assay: as above; assay type: biochemical; details: at Km of ATP (table title), method: 1 mM ATP, 50 nM ULight-CREBtide substrate, 1 hour, room temperature
# T2 construct: Recombinant ROCK1 (amino acids 1-477)
# T2 sequence (Q13464 1-477): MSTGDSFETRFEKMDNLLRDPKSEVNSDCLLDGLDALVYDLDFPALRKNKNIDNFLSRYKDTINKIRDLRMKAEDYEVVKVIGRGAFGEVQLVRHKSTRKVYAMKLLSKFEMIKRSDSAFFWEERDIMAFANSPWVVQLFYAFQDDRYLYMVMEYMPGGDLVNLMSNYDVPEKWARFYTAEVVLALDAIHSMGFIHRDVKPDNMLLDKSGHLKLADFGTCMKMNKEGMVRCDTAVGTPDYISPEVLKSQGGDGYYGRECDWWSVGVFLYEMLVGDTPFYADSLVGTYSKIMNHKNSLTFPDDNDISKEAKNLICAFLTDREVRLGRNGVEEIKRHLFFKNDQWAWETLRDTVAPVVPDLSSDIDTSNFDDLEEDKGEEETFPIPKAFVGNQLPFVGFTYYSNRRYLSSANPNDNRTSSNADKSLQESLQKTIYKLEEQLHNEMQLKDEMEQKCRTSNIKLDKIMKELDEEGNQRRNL
# T1 sequence (O75116 5-554): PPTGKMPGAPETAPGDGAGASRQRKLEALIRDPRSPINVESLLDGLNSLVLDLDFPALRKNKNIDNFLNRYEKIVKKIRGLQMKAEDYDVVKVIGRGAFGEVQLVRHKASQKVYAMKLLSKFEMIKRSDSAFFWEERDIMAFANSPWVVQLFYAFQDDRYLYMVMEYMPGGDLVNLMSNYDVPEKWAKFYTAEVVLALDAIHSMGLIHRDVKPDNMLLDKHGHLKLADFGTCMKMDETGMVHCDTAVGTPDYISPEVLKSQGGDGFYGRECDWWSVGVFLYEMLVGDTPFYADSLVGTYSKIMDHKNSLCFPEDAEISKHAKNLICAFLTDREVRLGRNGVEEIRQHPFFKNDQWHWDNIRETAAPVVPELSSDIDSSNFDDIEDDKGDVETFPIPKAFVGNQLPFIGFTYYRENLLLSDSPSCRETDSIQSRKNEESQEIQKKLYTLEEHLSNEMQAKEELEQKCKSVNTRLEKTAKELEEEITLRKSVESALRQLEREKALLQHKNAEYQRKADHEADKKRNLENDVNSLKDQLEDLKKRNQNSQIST
IC50 [1],IC50 [2],IC50 ([1]; hydrochloride),IC50 ([2]; hydrochloride),SMILES
< 10 nM,< 10 nM,–,–,"O=C(c1cn(CCO)c2cc(-c3cn[nH]c3)ccc12)C1COc2ccc(Cl)cc2C1 (centres unmarked) [Compound 2-2, (6-Chlorochroman-3-yl)-[1-(2-hydroxyethyl)-6-(1H-pyrazol-4-yl)indol-3-yl]methanone]"
–,–,11 to 50 nM,51 to 500 nM,"COc1n[nH]cc1-c1cc2c(cn1)c(C(=O)C1COc3ccc(Cl)cc3C1)cn2CCO (centres unmarked) [Compound 1-59, hydrochloride]"
< 10 nM,< 10 nM,–,–,COc1ccc2c(c1)CC(C(=O)c1cn(CCO)c3cc(-c4cn[nH]c4F)ncc13)CO2 (centres unmarked) [Compound 1-24]
< 10 nM,< 10 nM,–,–,C[C@H](O)Cn1cc(C(=O)C2COc3ccc(F)cc3C2)c2cnc(-c3c[nH]nc3Cl)cc21 (some centres unmarked) [Compound 1-20]
< 10 nM,< 10 nM,–,–,COc1ccc2c(c1)CC(C(=O)c1cn(C[C@H](C)O)c3cc(-c4cn[nH]c4Cl)ncc13)CO2 (some centres unmarked) [Compound 1-27]
< 10 nM,11 to 50 nM,–,–,COc1[nH]ncc1-c1cc2c(cn1)c(C(=O)[C@@H]1COc3ccc(Cl)cc3C1)cn2C[C@H](C)O [Compound 1-33]

SMILES,IC50 [1],IC50 [2],IC50 ([1]; hydrochloride),IC50 ([2]; hydrochloride)
O=C(c1cn(CCO)c2cc(-c3c[nH]c4ncccc34)ccc12)C1COc2ccccc2C1 (centres unmarked) [Compound 2-5],11 to 50 nM,51 to 500 nM,–,–
